Several values for one entry are separate records, joined by “and”; a condition that tells them apart may be missing. Equal entries are not always repeated. Entries after “also recorded” stand apart in the source; their conditions may differ.
Experiments:
mTOR = mTOR (Homo sapiens, UniProt P42345); assay: InvitroGen Adapta kinase assay, mTOR; format: biochemical
[1] = test system: IGROV-1 and OVCAR-3 cell lines; assay: Proliferation of ovarian cancer cell lines (AlamarBlue); format: cell-based; settings: IGROV-1, OVCAR-3, 48 hrs and 72 hrs
Procedure: IGROV-1 and OVCAR-3 cell lines were grown in the presence of serum plus the indicated concentrations of the compound of formula I. Proliferation was measured in triplicate wells by AlamarBlue assay (Invitrogen) 96-well plates.

phospho-Akt(Ser473) = assay: Constitutive Akt phosphorylation in leukemia and lymphoma cell lines (immunoblot); format: cell-based
Procedure: A large panel of leukemia and lymphoma cell lines was assessed for constitutive Akt phosphorylation. These cell lines represent B-lymphoma, T-lymphoma, ALL, Malignant histiocytosis, DLBCL and AML. […] Thereafter, cell were lysed, size-fractioned and immunoblotted with antibodies directed against phospho-Akt(Ser473).
The PI3K pathway is frequently deregulated in leukemia and lymphoma cell lines. […] In addition, PI3K pathway activation is dependent on p110δ.

DLBCL cell lines = assay: pAKT in DLBCL cell lines; format: cell-based
patient AML cells = assay: Phospho-Akt production in patient AML cells; format: cell-based, human; settings: 0.1, 1.0, 10 μM
Text: PI3Kδ is implicated in signaling in AML patient cells.

AKT and ERK pathways = assay: AKT and ERK pathway phosphorylation in MM cells (immunoblot); format: cell-based, human
Text: Whole-cell lysates were subjected to sodium dodecyl sulfate-polyacrylamide gel electrophoresis (SDS-PAGE) separation, transferred to Pure Nitrocellulose membranes (Bio-Rad Laboratories, Hercules, Calif.), and immunoblotted with anti-AKT, phospho(p)-AKT (Ser473, Thr 308), ERK1/2, P-ERK1/2, P-PDK1, STAT, P-STAT, P-FKRHL, P-70S6K, LC3, and PI3K/p110α Abs (Cell Signaling Danvers, Mass.); anti-p110β, PI3K/p110δ, Glyceraldehyde 3-phosphate dehydrogenase (GAPDH), α-tubulin, and actin Abs (Santa Cruz Biotechnology, CA); and anti-p110γ Ab (Alexis, San Diego, Calif.): and anti-LC3 Ab (Abgent, San Diego, Calif.).
Actin Ab was used as a loading control. […] Whole cell lysates were subjected to immunoblotting using AKT, P-AKT (Ser473 and Thr308), ERK1/2, P-ERK1/2, P-PDK1, and P-FKRHL antibodies. α-tubulin is used as a loading control.

CLL cells = format: cell-based, human
Procedure: (§1) This pro-survival effect was abrogated by the compound of formula I, which reduced CLL cell viability to 85±3% of controls at 48 hours (mean±SEM, n=15, *P<0.05). […] BCR cross-linking induces secretion of the chemokines CCL3 and CCL4 by CLL cells, which was quantified in CLL supernatants by ELISA.
(§2) The CCL3 concentrations were reduced by the compound of formula I from 943±535 pg/mL to 156±8 pg/mL, and the CCL4 concentrations from 7433±4463 pg/mL to 316±53 pg/mL (mean±SEM, n=5, *P<0.05).

CLL-NLC co-cultures = format: cell-based, human
Procedure: as §1, §2

[2] = test system: CLL cells co-cultured with MSCs; assay: CLL cells co-cultured with marrow stromal cells (MSC), DiOC6/PI viability; settings: compound 5 μM; bendamustine, fludarabine, dexamethasone 10 μM
Text: The viable cell population was characterized by bright DiOC6 staining and PI exclusion, and was gated in the lower right corner of each contour plot.
Viabilities of drug-treated samples were normalized to the viabilities of control samples at the respective timepoints (100%).

CLL patients = assay: Samples from CLL patients undergoing treatment (phospho-flow, plasma cytokines); format: in vivo, human
PI3K-δ = assay: PI3K ELISA assay on CLL cell lysates with lenalidomide; format: cell-based, human; settings: 0.5 μM lenalidomide; 1 or 10 μM compound added to lysate; N=9
Procedure: PI3K assay was preformed on whole cell lysates from CLL cells. The ELISA assay was performed according to the manufacture's instructions (Echelon Biosciences, Salt Lake City, Utah).
To first confirm the specificity of PI3-kinase activation, the direct increase in the enzymatic activity of PI3K following treatment with lenalidomide was determined. […] Results were calculated relative to μg of protein. Signaling with lenalidomide through the PI3K pathway can occur through four catalytic isoforms: p110α, p110β, p110γ, and p110δ.

[3] = test system: CLL cells with purified B-cells; assay: IgM production by B-cells cultured with treated CLL cells (ELISA); format: cell-based, human; settings: 0.5 μM lenalidomide and/or 10 μM compound, 48 hours, N=6; p<0.0001
Procedure: Quantization of IgM was determined. Briefly, lenalidomide-treated or vehicle control-treated CLL cells, were irradiated and placed in culture with target, purified B-cells, in the absence or presence of PWM ([…]).
Given the importance of the CD40-CD154 axis for lenalidomide-treated CLL cells to promote normal B-cells to produce immunoglobulin, the compound of formula I was assessed to see whether it could prevent this occurrence. […] CLL cells were irradiated (20 Gy) and placed in culture with purified B-cells, in the absence or presence of 5 μg/mL PWM. Quantification of IgM was determined by ELISA analysis.

[4] = test system: CLL cells on stromaNKTert; assay: Calcein-based adhesion assay of CLL cells on stroma; format: cell-based, human
Procedure: a confluent monolayer of CD154+L or StromaNKTert cells was generated by plating 1×10^4 cells/well in 96-well plates for 24 hours. Single cell suspensions of CLL cells at 0.5×10^6 cells/ml were then labeled with 1 μg/mL Calcein-AM (Invitrogen) for 1 hour. Cells were then spun down and treated with compound or vehicle for 1 to 24 hours. Non-adherent cells were washed off by aspiration. CLL cell adhesion was quantified by fluorimetry (Ex/Em=485/520 nm), and visualized directly using the Nikon TE2000 inverted live-cell imaging system.

CC[C@H](Nc1ncnc2[nH]cnc12)c1nc2cccc(F)c2c(=O)n1-c1ccccc1 [Compound I, 5-fluoro-3-phenyl-2-[1-(9H-purin-6-ylamino)-propyl]-3H-quinazolin-4-one]
IC50 (mTOR): > 1 µM
proliferation of ovarian cancer cell lines [1]: cytotoxic to two ovarian cancer cell lines
proliferation of ovarian cancer cell lines ([1]; listed as compound of formula I): inhibits proliferation of ovarian cancer cell lines
cell lines in which constitutive AKT phosphorylation was inhibited (phospho-Akt(Ser473); 10 μM, 2 hrs, B-cell and T-cell lymphomas included): 11 out of 11
constitutive Akt(Ser473) phosphorylation (phospho-Akt(Ser473); 2 hours treatment): inhibits Akt phosphorylation; also recorded: Reduction in Akt(Ser473) was achieved for all cell lines
cell lines in which constitutive AKT phosphorylation was inhibited (phospho-Akt(Ser473); cell lines with constitutive p-AKT): 13 of 13 and 13 out of 13
pAKT levels in DLBCL cell lines (DLBCL cell lines): reduces pAKT levels in several DLBCL cell lines
phospho-Akt production in patient AML cells (patient AML cells): reduces phospho-Akt production in patient AML cells
phosphorylation of PDK-1 and FKHRL (AKT and ERK pathways; INA-6 and LB, 0-6 hours): significantly inhibited phosphorylation of upstream PDK-1 and downstream FKHRL
phosphorylation of AKT or ERK, MM.1S cells (AKT and ERK pathways; low expression of P110δ, 0-5.0 μM, 6 hours): did not affect phosphorylation of AKT or ERK
phosphorylation of AKT and ERK1/2, INA-6 cells (AKT and ERK pathways; p110δ positive, 12 h): significantly blocked phosphorylation of AKT and ERK1/2
supernatant CCL3 concentration (CLL cells; BCR cross-linking, from 4060±1392 pg/mL, mean±SEM, n=6): 2901 ± 1220 pg/mL
supernatant CCL4 level (CLL cells; BCR cross-linking, from 5721±1789 pg/mL, mean±SEM, n=6): 3223 ± 1311 pg/mL
CLL cell viability, % of controls (CLL cells; human, 48 h): 85±3%
CXCL13 level (CLL-NLC co-cultures; CLL-NLC co-cultures, from 151±35, n=4): 70 ± 27 pg/mL
CCL3 concentration (CLL-NLC co-cultures; CLL-NLC co-cultures, from 943±535 pg/mL, n=5): 156 ± 8 pg/mL
CCL4 concentration (CLL-NLC co-cultures; CLL-NLC co-cultures, from 7433±4463 pg/mL, n=5): 316 ± 53 pg/mL
CLL cell viability, % of untreated controls (CLL-NLC co-cultures; human, 48 h): 64±6%
CLL cell death / survival in co-culture with MSC [2]: sensitized CLL cells to the cytotoxic agents
mean plasma level of CCL3 (CLL patients; Day28+, baseline 186 pg/mL, 14 CLL patients): 29 pg/mL
mean plasma level of CXCL13 (CLL patients; Day28+, baseline 316 pg/mL, 14 CLL patients): 40 pg/mL
mean plasma level of TNFα (CLL patients; Day28+, baseline 104, 14 CLL patients): 29 pg/mL
mean plasma level of CCL4 (CLL patients; Day28+, baseline 303, 14 CLL patients): 70 pg/mL
mean plasma level of CCL22 (CLL patients; Day28+, baseline 1067, 14 CLL patients): 533 pg/mL
down-regulation of pAkt(T308) in peripheral CLL cells (CLL patients; patients on treatment, n=12): > 90%
PI3K enzymatic activity after lenalidomide (PI3K-δ): prevent the increase in PI3K enzymatic activity
production of IgM [3]: completely prevent production of IgM
CLL cell adherence to stroma at one hour [4]: reduced adherence of CLL cells was detectable
CLL cell adherence to stroma at 24 hours ([4]; 10 μM): exhibited less adherent at 24 hours
